Experiments:
[1] = target: T1, R341 (H6c-R341) (Acanthamoeba polyphaga mimivirus, UniProt Q5UQS6); conditions: 100 μM ATP, 5 mM MgCl2 or 0.5 mM MnCl2, pH 7.5, 30°C
T1 construct: gene MIMI_R341

[2] = target: T2, Mg561 (H6c-Mg561) (Megavirus chiliensis, UniProt G5CT11); assay: in vitro polyadenylation of […]-labelled 20-mer RNA, urea-PAGE; format: biochemical; conditions: 100 μM ATP, 5 mM MgCl2 or 0.5 mM MnCl2, pH 7.5, 30°C
T2 construct: gene mchi_555; full length, N-terminal His6 tag removed by HRV 3C protease; E. coli Rosetta (DE3)
T2 sequence (G5CT11 1-531): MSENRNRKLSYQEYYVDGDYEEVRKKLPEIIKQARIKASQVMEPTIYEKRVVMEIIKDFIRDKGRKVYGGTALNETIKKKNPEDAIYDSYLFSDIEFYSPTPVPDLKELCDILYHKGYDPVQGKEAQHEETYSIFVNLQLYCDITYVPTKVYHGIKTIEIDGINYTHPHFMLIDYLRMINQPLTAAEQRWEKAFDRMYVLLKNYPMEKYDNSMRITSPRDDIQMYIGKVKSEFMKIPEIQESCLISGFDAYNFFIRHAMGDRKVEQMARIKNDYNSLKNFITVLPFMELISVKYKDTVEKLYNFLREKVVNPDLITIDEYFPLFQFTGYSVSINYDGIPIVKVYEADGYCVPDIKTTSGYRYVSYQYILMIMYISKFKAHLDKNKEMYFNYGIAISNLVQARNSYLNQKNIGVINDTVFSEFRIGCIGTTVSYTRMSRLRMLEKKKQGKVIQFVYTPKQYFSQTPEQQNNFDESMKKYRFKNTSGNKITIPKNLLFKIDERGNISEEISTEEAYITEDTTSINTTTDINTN

[3] = target: T3, Mg18 (H6c+Mg18) (Megavirus chiliensis, UniProt G5CQI9); assay: methyl transfer from 3H-AdoMet to RNA, DEAE filter binding; format: biochemical; conditions: 10 μM AdoMet, GpppAN13, 7MeGpppAN13 or poly(A) RNA 0.7 μM, 1 mM MgCl2, pH 7.5, 30°C; labelled compound
T3 construct: gene mchi_21; full length, N-terminal His6 tag kept; E. coli Rosetta (DE3)
T3 sequence (G5CQI9 1-340): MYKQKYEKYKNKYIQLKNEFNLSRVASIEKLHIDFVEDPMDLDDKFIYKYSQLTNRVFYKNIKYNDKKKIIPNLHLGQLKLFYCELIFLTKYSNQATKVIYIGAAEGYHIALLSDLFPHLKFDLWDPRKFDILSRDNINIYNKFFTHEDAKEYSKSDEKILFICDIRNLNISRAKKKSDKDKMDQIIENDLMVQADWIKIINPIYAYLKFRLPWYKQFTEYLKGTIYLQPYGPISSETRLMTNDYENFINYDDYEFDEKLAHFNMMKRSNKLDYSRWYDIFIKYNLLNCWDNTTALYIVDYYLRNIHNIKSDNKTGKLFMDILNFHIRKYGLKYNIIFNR

[4] = target: T2, Mg561 (H6c-Mg561); assay: in vitro polyU tailing of […]-labelled 20-mer RNA, urea-PAGE; format: biochemical; conditions: 100 μM UTP in place of ATP, Mn2+ (similar with Mg2+), pH 7.5, 30°C
[5] = target: Megavirus chilensis polyA polymerase Mg561, after tag removal (H6c-Mg561) (Megavirus chilensis); assay: SEC; gel filtration of purified proteins, GE Healthcare markers for calibration
[6] = target: Megavirus chilensis Mg18 protein with N-terminal His6 tag (H6c+Mg18) (Megavirus chilensis); assay: BLI
[7] = target: Mimivirus polyA polymerase R341, after tag removal (H6c-R341) (Mimivirus); assay: SEC; gel filtration of purified proteins, GE Healthcare markers for calibration

Molecule: Nc1ncnc2c1ncn2[C@@H]1O[C@H](COP(=O)(O)OP(=O)(O)OP(=O)(O)O)[C@@H](O)[C@H]1O [ATP]
- in vitro polyadenylation of 32P-labelled 20-mer RNA, urea-PAGE [1]: synthesize long products, apparently proccessively, derived from the RNA and ATP
- in vitro polyadenylation of 32P-labelled 20-mer RNA, urea-PAGE [2]: synthesize long products, apparently proccessively, derived from the RNA and ATP

Molecule: C[S+](CC[C@H](N)C(=O)O)C[C@H]1O[C@@H](n2cnc3c(N)ncnc32)[C@H](O)[C@@H]1O (stereo partly shown) [AdoMet]
- methyl transfer from 3H-AdoMet to RNA, DEAE filter binding [3]: Mg18 had comparable activity with 7MeGpppAN13 and GpppAN13

Molecule: O=c1ccn([C@@H]2O[C@H](COP(=O)(O)OP(=O)(O)OP(=O)(O)O)[C@@H](O)[C@H]2O)c(=O)[nH]1 [UTP]
- in vitro polyU tailing of 32P-labelled 20-mer RNA, urea-PAGE [4]: Mg561 was also able to add long polyU tails, although with a reduced activity

Molecule: Megavirus chilensis polyA polymerase Mg561, after tag removal (H6c-Mg561) (enzyme)
- stoichiometry N [5]: 2
- Kd [6]: 6.2 µM

Molecule: Mimivirus polyA polymerase R341, after tag removal (H6c-R341) (enzyme)
- stoichiometry N [7]: 2

Source: article PMC4402537, “mRNA maturation in giant viruses: variation on a theme” (Nucleic Acids Research, 2015)
